Test results reported in patent US9643970B2, “Substituted imidazo [1,5-a]pyrazines as PDE9 inhibitors” (H Lundbeck A/S, priority 2012, dated 2017).
pIC50: −log10 of the molar value.

Target: PDE9 (Homo sapiens, UniProt O76083)
Test: PDE9 inhibition assay
Assay type: biochemical
Details: not given
Method: Reactions are initiated by addition of the cyclic nucleotide substrate, and reactions are allowed to proceed for one hr at room temperature before being terminated through mixing with 15 uL 8 mg/mL yttrium silicate SPA beads (Amersham). […] IC50 values were calculated by non linear regression using XLfit (IDBS).

Sequence of PDE9 (O76083 whole entry): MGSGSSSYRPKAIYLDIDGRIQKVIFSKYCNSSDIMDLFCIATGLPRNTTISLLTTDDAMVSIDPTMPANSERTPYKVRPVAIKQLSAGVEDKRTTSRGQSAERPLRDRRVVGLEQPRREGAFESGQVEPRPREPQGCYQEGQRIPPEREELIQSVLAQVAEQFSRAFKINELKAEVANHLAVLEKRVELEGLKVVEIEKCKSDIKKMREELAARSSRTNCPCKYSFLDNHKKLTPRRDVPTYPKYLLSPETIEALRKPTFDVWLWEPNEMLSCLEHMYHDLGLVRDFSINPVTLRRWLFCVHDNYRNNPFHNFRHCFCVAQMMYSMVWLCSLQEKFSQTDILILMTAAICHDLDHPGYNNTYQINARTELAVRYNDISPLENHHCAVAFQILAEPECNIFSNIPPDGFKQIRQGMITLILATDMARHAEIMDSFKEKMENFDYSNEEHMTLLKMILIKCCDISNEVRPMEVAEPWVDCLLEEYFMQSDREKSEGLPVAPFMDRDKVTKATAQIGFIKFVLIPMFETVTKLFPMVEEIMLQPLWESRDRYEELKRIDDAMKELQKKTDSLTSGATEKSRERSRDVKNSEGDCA

| pIC50 | SMILES |
| --- | --- |
| 8.00 | O=c1[nH]c(CN2CC(c3ccc(C(F)(F)F)cn3)C2)cn2c(C3CCOCC3)ncc12 [Compound 70, 3-tetrahydropyran-4-yl-6-[[3-[5-(trifluoromethyl)-2-pyridyl]azetidin-1-yl]methyl]-7h-imidazo[1,5-a]pyrazin-8-one] |
| 7.80 | CCc1ccc(C2CN(C(C)c3cn4c(-c5ccccc5)ncc4c(=O)[nH]3)C2)cc1 (centres unmarked) [Compound 30, 6-[1-[3-(4-ethylphenyl)azetidin-1-yl]ethyl]-3-phenyl-7h-imidazo[1,5-a]pyrazin-8-one] |
| 8.52 | O=c1[nH]c(CN2CC(Oc3cccnc3)C2)cn2c(-c3ccc(F)cc3)ncc12 [Compound 88, 3-(4-fluorophenyl)-6-[[3-(3-pyridyloxy)azetidin-1-yl]methyl]-7h-imidazo[1,5-a]pyrazin-8-one] |

Same assay, conditions: SPA assay, 10 nM 3H-cAMP, 1 hour incubation; read-out: IC50

| pIC50 | SMILES |
| --- | --- |
| 7.74 | CC1CN(Cc2ccc(C#N)cc2)CC1c1cn2c(C3CCOCC3)ncc2c(=O)[nH]1 (centres unmarked) [Compound 98, 4-[[3-methyl-4-(8-oxo-3-tetrahydropyran-4-yl-7h-imidazo[1,5-a]pyrazin-6-yl)pyrrolidin-1-yl]methyl]benzonitrile] |
| 8.00 | Cc1cnc(CN2CC(C)C(c3cn4c(C5CCOCC5)ncc4c(=O)[nH]3)C2)cn1 (centres unmarked) [Compound 102, 6-[4-methyl-1-[(5-methylpyrazin-2-yl)methyl]pyrrolidin-3-yl]-3-tetrahydropyran-4-yl-7h-imidazo[1,5-a]pyrazin-8-one] |
| 7.54 | O=c1[nH]c(CN2CC(c3ccccn3)C2)cn2c(-c3ccccc3)ncc12 [Compound 37, 3-phenyl-6-[[3-(2-pyridyl)azetidin-1-yl]methyl]-7h-imidazo[1,5-a]pyrazin-8-one] |
| 6.85 | O=c1[nH]c(CN2CCC(Oc3ccccc3)C2)cn2c(-c3ccc(F)cc3)ncc12 (centres unmarked) [Compound 85, 3-(4-fluorophenyl)-6-[(3-phenoxypyrrolidin-1-yl)methyl]-7h-imidazo[1,5-a]pyrazin-8-one] |
| 7.42 | CC(c1cn2c(-c3ccccc3)ncc2c(=O)[nH]1)N1CC(Oc2cccc(F)n2)C1 (centres unmarked) [Compound 27, 6-[1-[3-[(6-fluoro-2-pyridyl)oxy]azetidin-1-yl]ethyl]-3-phenyl-7h-imidazo[1,5-a]pyrazin-8-one] |
| 7.43 | CC1CN(CC2CCCCC2)CC1c1cn2c(C3CCOCC3)ncc2c(=O)[nH]1 (centres unmarked) [Compound 115, 6-[1-(cyclohexylmethyl)-4-methyl-pyrrolidin-3-yl]-3-tetrahydropyran-4-yl-7h-imidazo[1,5-a]pyrazin-8-one] |
| 7.47 | O=c1[nH]c(CN2CC(OCc3ccc(Cl)cc3)C2)cn2c(-c3ccc(F)cc3)ncc12 [Compound 108, 6-[[3-[(4-chlorophenyl)methoxy]azetidin-1-yl]methyl]-3-(4-fluorophenyl)-7h-imidazo[1,5-a]pyrazin-8-one] |
| 7.44 | CC1CN(Cc2ccc(F)cc2)CC1c1cn2c(-c3ccc(Cl)cc3)ncc2c(=O)[nH]1 (centres unmarked) [Compound 110, 3-(4-chlorophenyl)-6-[1-[(4-fluorophenyl)methyl]-4-methyl-pyrrolidin-3-yl]-7h-imidazo[1,5-a]pyrazin-8-one] |
| 7.18 | COc1ccc(C2CN(C(C)c3cn4c(-c5ccccc5)ncc4c(=O)[nH]3)C2)cc1 (centres unmarked) [Compound 34, 6-[1-[3-(4-methoxyphenyl)azetidin-1-yl]ethyl]-3-phenyl-7h-imidazo[1,5-a]pyrazin-8-one] |
| 8.05 | O=c1[nH]c(CN2CC(Oc3cnccn3)C2)cn2c(-c3ccc(F)cc3)ncc12 [Compound 55, 3-(4-fluorophenyl)-6-[(3-pyrazin-2-yloxyazetidin-1-yl)methyl]-7h-imidazo[1,5-a]pyrazin-8-one] |
| 7.74 | N#Cc1ccc(OC2CN(Cc3cn4c(C5CCOCC5)ncc4c(=O)[nH]3)C2)cc1 [Compound 80, 4-[1-[(8-oxo-3-tetrahydropyran-4-yl-7h-imidazo[1,5-a]pyrazin-6-yl)methyl]azetidin-3-yl]oxybenzonitrile] |
